Among the data in patent US10106504B2, “Pyridin-3-yl acetic acid derivatives as inhibitors of human immunodeficiency virus replication” (priority 2015, dated 2018) are EC50 values, retold here.

Where two headings read alike, the source gives them in different places. Where only a bound is given, the exact number is not on record here.

The assay relates to NL-RLuc virus. Briefly: Inhibition of HIV replication (NL-RLuc virus, luciferase readout in MT-2 cells). As to conditions: Human immunodeficiency virus 1, MT2, 120 h. In kind it is cell-based. The text has this: Inhibition of HIV Replication:
A recombinant NL-RLuc proviral clone was constructed in which a section of the nef gene from NL4-3 was replaced with the Renilla Luciferase gene. This virus is fully infectious and can undergo multiple cycles of replication in cell culture. In addition, the luciferous reporter provides a simple and easy method for quantitating the extent of virus growth and consequently, the antiviral activity of test compounds. The plasmid pNLRLuc contains the proviral NL-Rluc DNA cloned into pUC18 at the PvuII site. The NL-RLuc virus was prepared by transfection of 293T cells with the plasmid pNLRLuc. Transfections were performed using the LipofectAMINE PLUS kit from Invitrogen (Carlsbad, Calif.) according to the manufacturer and the virus generated was titered in MT-2 cells. For susceptibility analyses, the titrated virus was used to infect MT-2 cells in the presence of compound, and after 5 days of incubation, cells were processed and quantitated for virus growth by the amount of expressed luciferase. Assay media was RPMI 1640 supplemented with 10% heat inactivated fetal bovine serum (FBS), 100 units/ml penicillin G/100 units/ml streptomycin, 10 mM HEPES buffer pH 7.55 and 2 mM L-glutamine. The results from at least 2 experiments were used to calculate the EC50 values. Luciferase was quantitated using the Dual Luciferase kit from Promega (Madison, Wis.). Susceptibility of viruses to compounds was determined by incubation in the presence of serial dilutions of the compound. The 50% effective concentration (EC50) was calculated by using the exponential form of the median effect equation where (Fa)=1/[1+(ED50/drug conc.)^m] (Johnson V A, Byington R T. Infectivity Assay. In Techniques in HIV Research. ed. Aldovini A, Walker BD. 71-76. New York: Stockton Press. 1990). Activity equal to A refers to a compound having an EC50<100 nM, while B and C denote compounds having an EC50 between 100 nM and 1 uM (B) or >1 uM (C).

On to `Cc1nc(C)c([C@H](OC(C)(C)C)C(=O)O)c(-c2cc(F)c3c(c2C)CCCO3)c1-c1cc(F)c2c(c1C)CCCO2` [Example 1, (2S)-2-(4,5-Bis(8-fluoro-5-methylchroman-6-yl)-2,6-dimethylpyridin-3-yl)-2-(tert-butoxy)acetic Acid], for which the EC50 (read-out: Activity) is over 1 µM and the EC50 (read-out: EC50 μM) came out at 1.74 µM.
For the compound `COc1ccc(COc2ccc(-c3c(C)nc(C)c([C@H](OC(C)(C)C)C(=O)O)c3-c3ccc(Cl)cc3)cc2)cc1` [Example 2, (S)-2-(tert-Butoxy)-2-(4-(4-chlorophenyl)-5-(4-((4-methoxybenzyl)oxy)phenyl)-2,6-dimethylpyridin-3-yl)acetic Acid], the EC50 reads like this: (read-out: Activity) under 0.1 µM; (read-out: EC50 μM) 0.073 µM.
In the case of `COc1ccc(COc2ccc(-c3c(C)nc(C)c([C@H](OC(C)(C)C)C(=O)O)c3-c3ccc(C)cc3)cc2)cc1` [Example 3, (S)-2-(tert-Butoxy)-2-(5-(4-((4-methoxybenzyl)oxy)phenyl)-2,6-dimethyl-4-(p-tolyl)pyridin-3-yl)acetic Acid], the EC50 (read-out: Activity) is 0.1 to 1 µM and the EC50 (read-out: EC50 μM) worked out at 0.196 µM.
Take `COc1ccc(COc2ccc(-c3c(C)nc(C)c([C@H](OC(C)(C)C)C(=O)O)c3-c3ccc(OCc4ccc(OC)cc4)cc3)cc2)cc1` [Example 4, (S)-2-(4,5-Bis(4-((4-methoxybenzyl)oxy)phenyl)-2,6-dimethylpyridin-3-yl)-2-(tert-butoxy)acetic Acid]: where the note is “read-out: Activity”, the EC50 lay in the range of 0.1 to 1 µM.
Still for that read-out and setting: the value for `Cc1ccc(-c2c(-c3ccc(OCc4ccc(F)cc4)cc3)c(C)nc(C)c2[C@H](OC(C)(C)C)C(=O)O)cc1` [Example 5, (S)-2-(tert-Butoxy)-2-(5-(4-((4-fluorobenzyl)oxy)phenyl)-2,6-dimethyl-4-(p-tolyl)pyridin-3-yl)acetic Acid] was 0.1 to 1 µM; that for `Cc1nc(C)c([C@H](OC(C)(C)C)C(=O)O)c(-c2cc(F)c3c(c2C)CCCO3)c1-c1ccc(OCCc2ccc(F)cc2)cc1` [Example 6, (2S)-2-(tert-Butoxy)-2-(4-(8-fluoro-5-methylchroman-6-yl)-5-(4-(4-fluorophenethoxy)phenyl)-2,6-dimethylpyridin-3-yl)acetic Acid] was under 0.1 µM.
`CCOc1ccc(-c2c(C)nc(C)c([C@H](OC(C)(C)C)C(=O)O)c2-c2cc(F)c3c(c2C)CCCO3)cc1` [Example 7, (2S)-2-(tert-Butoxy)-2-(5-(4-ethoxyphenyl)-4-(8-fluoro-5-methylchroman-6-yl)-2,6-dimethylpyridin-3-yl)acetic Acid]: the EC50 is 0.1 to 1 µM (read-out: Activity) and 0.545 µM (read-out: EC50 μM).
Consider `Cc1nc(C)c([C@H](OC(C)(C)C)C(=O)O)c(-c2ccc(OCCc3ccc(F)cc3)cc2)c1-c1ccc(OCCc2ccc(F)cc2)cc1` [Example 8, (S)-2-(4,5-Bis(4-(4-fluorophenethoxy)phenyl)-2,6-dimethylpyridin-3-yl)-2-(tert-butoxy)acetic Acid], for which the EC50 (read-out: Activity) is 0.1 to 1 µM.
Same read-out and setting: the value for `Cc1nc(C)c([C@H](OC(C)(C)C)C(=O)O)c(-c2ccc3c(c2)CCCO3)c1-c1ccc(OCCc2ccc(F)cc2)cc1` [Example 9, (S)-2-(tert-Butoxy)-2-(4-(chroman-6-yl)-5-(4-(4-fluorophenethoxy)phenyl)-2,6-dimethylpyridin-3-yl)acetic Acid] was under 0.1 µM; that for `Cc1nc(CN(C)C)c(-c2ccc(OCCc3ccc(F)cc3)cc2)c(-c2ccc3c(c2)CCCO3)c1[C@H](OC(C)(C)C)C(=O)O` [Example 10, (S)-2-(tert-Butoxy)-2-(4-(chroman-6-yl)-6-((dimethylamino)methyl)-5-(4-(4-fluorophenethoxy)phenyl)-2-methylpyridin-3-yl)acetic Acid] was under 0.1 µM.
On the same count and under the same terms, the value for `Cc1nc(CNCC2CCOCC2)c(-c2ccc(OCCc3ccc(F)cc3)cc2)c(-c2ccc3c(c2)CCCO3)c1[C@H](OC(C)(C)C)C(=O)O` [Example 11, (S)-2-(tert-Butoxy)-2-(4-(chroman-6-yl)-5-(4-(4-fluorophenethoxy)phenyl)-2-methyl-6-((((tetrahydro-2H-pyran-4-yl)methyl)amino)methyl)pyridin-3-yl)acetic Acid] was under 0.1 µM.
On to `COCCNCc1nc(C)c([C@H](OC(C)(C)C)C(=O)O)c(-c2ccc3c(c2)CCCO3)c1-c1ccc(OCCc2ccc(F)cc2)cc1` [Example 12, (S)-2-(tert-Butoxy)-2-(4-(chroman-6-yl)-5-(4-(4-fluorophenethoxy)phenyl)-6-(((2-methoxyethyl)amino)methyl)-2-methylpyridin-3-yl)acetic Acid], for which the EC50 reads like this: (read-out: Activity) under 0.1 µM; (read-out: EC50 μM) 0.007 µM.
As for `Cc1nc(CN(C)CC2CCOCC2)c(-c2ccc(OCCc3ccc(F)cc3)cc2)c(-c2ccc3c(c2)CCCO3)c1[C@H](OC(C)(C)C)C(=O)O` [Example 13, (S)-2-(tert-Butoxy)-2-(4-(chroman-6-yl)-5-(4-(4-fluorophenethoxy)phenyl)-2-methyl-6-((methyl((tetrahydro-2H-pyran-4-yl)methyl)amino)methyl)pyridin-3-yl)acetic Acid], under “read-out: Activity”, the EC50 was under 0.1 µM.
With `Cc1nc(CO)c(-c2ccc(OCCc3ccc(F)cc3)cc2)c(-c2ccc3c(c2)CCCO3)c1[C@H](OC(C)(C)C)C(=O)O` [Example 14, (S)-2-(tert-Butoxy)-2-(4-(chroman-6-yl)-5-(4-(4-fluorophenethoxy)phenyl)-6-(hydroxymethyl)-2-methylpyridin-3-yl)acetic Acid], the EC50 (read-out: Activity) is under 0.1 µM.
On the same count and under the same terms, with `Cc1nc(COC2CCOCC2)c(-c2ccc(OCCc3ccc(F)cc3)cc2)c(-c2ccc3c(c2)CCCO3)c1[C@H](OC(C)(C)C)C(=O)O` [Example 15, (S)-2-(tert-Butoxy)-2-(4-(chroman-6-yl)-5-(4-(4-fluorophenethoxy)phenyl)-2-methyl-6-(((tetrahydro-2H-pyran-4-yl)oxy)methyl)pyridin-3-yl)acetic Acid] the figure was under 0.1 µM; with `Cc1nc(COCC2COC2)c(-c2ccc(OCCc3ccc(F)cc3)cc2)c(-c2ccc3c(c2)CCCO3)c1[C@H](OC(C)(C)C)C(=O)O` [Example 16, (S)-2-(tert-Butoxy)-2-(4-(chroman-6-yl)-5-(4-(4-fluorophenethoxy)phenyl)-2-methyl-6-((oxetan-3-ylmethoxy)methyl)pyridin-3-yl)acetic Acid], under 0.1 µM.
As to `CCOCCOCc1nc(C)c([C@H](OC(C)(C)C)C(=O)O)c(-c2ccc3c(c2)CCCO3)c1-c1ccc(OCCc2ccc(F)cc2)cc1` [Example 17, (S)-2-(tert-Butoxy)-2-(4-(chroman-6-yl)-6-((2-ethoxyethoxy)methyl)-5-(4-(4-fluorophenethoxy)phenyl)-2-methylpyridin-3-yl)acetic Acid], where the note is “read-out: Activity”, the EC50 was under 0.1 µM.
With `CCOCCOCCOCc1nc(C)c([C@H](OC(C)(C)C)C(=O)O)c(-c2ccc3c(c2)CCCO3)c1-c1ccc(OCCc2ccc(F)cc2)cc1` [Example 18, (S)-2-(tert-Butoxy)-2-(4-(chroman-6-yl)-6-((2-(2-ethoxyethoxy)ethoxy)methyl)-5-(4-(4-fluorophenethoxy)phenyl)-2-methylpyridin-3-yl)acetic Acid], the EC50 (read-out: Activity) was under 0.1 µM.
Regarding `Cc1nc(C)c([C@H](OC(C)(C)C)C(=O)O)c(-c2ccc3c(c2)CCCO3)c1-c1ccc2c(c1)CCN(C(=O)OCc1ccccc1)C2` [Example 19, (S)-2-(5-(2-((Benzyloxy)carbonyl)-1,2,3,4-tetrahydroisoquinolin-6-yl)-4-(chroman-6-yl)-2,6-dimethylpyridin-3-yl)-2-(tert-butoxy)acetic Acid], the EC50 is, setting by setting: (read-out: Activity) under 0.1 µM; (read-out: EC50 μM) 0.069 µM.
For the compound `Cc1nc(C)c([C@H](OC(C)(C)C)C(=O)O)c(-c2ccc3c(c2)CCCO3)c1-c1ccc2c(c1)CCN(Cc1ccc(F)cc1)C2` [Example 20, (S)-2-(tert-Butoxy)-2-(4-(chroman-6-yl)-5-(2-(4-fluorobenzyl)-1,2,3,4-tetrahydroisoquinolin-6-yl)-2,6-dimethylpyridin-3-yl)acetic Acid], the EC50 (read-out: Activity) was under 0.1 µM.
Regarding `Cc1nc(C)c([C@H](OC(C)(C)C)C(=O)O)c(-c2ccc3c(c2)CCCO3)c1-c1ccc2c(c1)CCNC2` [Example 21, (S)-2-(tert-Butoxy)-2-(4-(chroman-6-yl)-2,6-dimethyl-5-(1,2,3,4-tetrahydroisoquinolin-6-yl)pyridin-3-yl)acetic acid], the EC50 by setting is: (read-out: Activity) over 1 µM; (read-out: EC50 μM) 7.77 µM.
`Cc1nc(C)c([C@H](OC(C)(C)C)C(=O)O)c(-c2ccc3c(c2)CCCO3)c1-c1ccc2c(c1)CCN(C)C2` [Example 22, (S)-2-(tert-Butoxy)-2-(4-(chroman-6-yl)-2,6-dimethyl-5-(2-methyl-1,2,3,4-tetrahydroisoquinolin-6-yl)pyridin-3-yl)acetic acid]: the EC50 (read-out: Activity) lay in the range of 0.1 to 1 µM and the EC50 (read-out: EC50 μM) worked out at 0.628 µM.
Turning to `Cc1nc(C)c([C@H](OC(C)(C)C)C(=O)O)c(-c2ccc3c(c2)CCCO3)c1-c1ccc2c(c1)CCN(Cc1ccccc1F)C2` [Example 23, (S)-2-(tert-Butoxy)-2-(4-(chroman-6-yl)-5-(2-(2-fluorobenzyl)-1,2,3,4-tetrahydroisoquinolin-6-yl)-2,6-dimethylpyridin-3-yl)acetic Acid], the EC50 (read-out: Activity) is under 0.1 µM.
